Data reported in patent US10001483B2, “Methods for the treatment of Kaposi's sarcoma or KSHV-induced lymphoma using immunomodulatory compounds, and uses of biomarkers” (Celgene Corporation, priority 2015, dated 2018).
Entries after “also recorded” stand apart in the source; their conditions may differ. Marks after values point to notes of the source that are not given here.

Assays:
[1] = test system: MHC-1; experiment: K3/K5 mediated MHC-1 down-regulation in K3 or K5 transfected KSHV-negative BJAB cells; assay type: cell-based
Experimental: FIGS. 9A-9E. […] 24 hours after electroporation, FACS analysis was done using half of the cells. […] The remaining cells were subjected to lysis, protein extraction, and western blot. Blots were probed with antibodies to the indicated proteins.

[2] = test system: lymphocyte subsets; experiment: Immunologic correlatives: lymphocyte numbers and T cell subsets/activation by immunophenotyping of PBMC; assay type: in vivo, human; settings: for CD4 and CD8 counts: week 4 and week 8 of therapy
Experimental: (§1) Aspirin at 81 mg daily was administered as thromboprophylaxis. Assessments were performed every 4 weeks for lymphocyte numbers, Kaposi sarcoma associated herpesvirus (KSHV/HHV8) viral load (VL) and HIV VL and at 8 weeks for T cell subsets and activation by immunophenotyping of peripheral blood mononuclear cells (PBMC). KSHV VL in PBMC and HIV VL in plasma were assayed by quantitative PCR; an ultrasensitive single copy assay was used for HIV VL. Changes from baseline were evaluated using the Wilcoxon signed rank test with P<0.005 considered significant given multiple comparisons. Differences in changes between the HIV infected and uninfected groups were evaluated using the Wilcoxon rank sum test. Median time of the patients on therapy 7 cycles (range 2-12).
(§2) Laboratory Assays: Lymphocyte subsets were assessed by fluorescent-activated cell sorting using the BlueOcean platform (Beckman Coulter, Carlsbad, Calif.). Plasma HIV-1 […] was evaluated using an ultrasensitive assay whose sensitivity was 1 viral copy per plasma volume. Briefly, a triplex PCR was used using a modification of a previously reported assay with three primers: one spanning the start codon of gag, one in the gag coding region, and one internal control. Samples were tested from 6 mL plasma aliquots, with 12 replicants per sample. KSHV VL in peripheral blood mononuclear cells (PBMC) was assessed by quantitative real-time PCR.
(§3) Changes in immunologic and virologic parameters were evaluated by a Wilcoxon signed rank test. Exact Wilcoxon rank sum tests were used to compare pharmacokinetic parameters at each time point and differences from baseline. All p-values are two-tailed and reported without adjustment for multiple comparisons. HRQL was analyzed using a using a mixed model repeated measures analysis for FAHI and the marginal homogeneity test for KS-specific questions

[3] = test system: KSHV K3 and K5; experiment: K3 and K5 protein expression in BCBL-1 cells after lytic activation, Western blot; assay type: cell-based; settings: following lytic activation
Experimental: (§4) Western Blotting: At the end of an incubation period, cells were lysed and nuclear/cytoplasmic extracts were prepared using the NE-PER nuclear extraction kit (Pierce). Samples were subjected to SDS-PAGE (4 to 12% NuPAGE Tris-Bis) (Invitrogen) and transferred to nitrocellulose. The membrane was blocked with 5% w/v nonfat dry milk in 1×TBST (10 mM Tris-Hcl, […], 150 mM NaCl, and 0.05% Tween 20) overnight at 4° C. Blots were incubated with indicated antibodies such as anti-IRF-7 (Santa Cruz), anti-IRF-4 (Cell Signaling), anti-p21 (Cell Signaling), anti-NF-κB p65 (Cell Signaling), anti-NF-κB phospho-p65 (Cell Signaling), IFN-γRa (Cell Signaling), or anti-CRBN (Sigma-Aldrich), and subjected to the appropriate secondary antibody conjugated to alkaline phosphatase (Promega). Bands were visualized with Western Blue stabilized substrate (Promega). Membranes were scanned and images were processed as described.
Flow Cytometry Analysis and Antibodies: For flow cytometry analysis of MHC-I expression, cells were plated at 400,000 cells/mL and pretreated with immunomodulatory agents as indicated. After twenty-four hours, cells were treated with butyrate at indicated amounts to induce lytic activation and down-regulation of MHC-I. After another twenty-four hours, cells were analyzed on FACS and extracts were prepared as indicated. […]

[4] = test system: Kaposi sarcoma associated herpesvirus (KSHV/HHV8); experiment: KSHV viral load in PBMC by quantitative real-time PCR; assay type: in vivo
Experimental: as §1, §2, §3

[5] = test system: p21; experiment: Western blot of p21 in PEL cell lines; assay type: cell-based; settings: 10 ii M for 72 hours; FIGS. 6A-6B
Experimental: (§5) Cell Culture: The PEL lines JSC-1 (John Hopkins University, Baltimore, Md.), dually infected with Epstein-Barr virus (EBV) and HHV-8, and BC-3 (ATCC, Rockville, Md.) and BCBL-1(National Institute of Health AIDS Research and Reagent Program, Rockville, Md.), harboring KSHV only, and CA-46, an uninfected cancerous B-cell line, were grown in RPMI 1640 medium (Invitrogen, Carlsbad, Calif.) supplemented with 15% fetal-bovine serum (FBS) (Thermo Scientific, Rockford, Ill.) and Pen/Strep glutamine at 37° C. with 5% CO2.
as §4, with “Membranes were scanned and images were processed as described.” left out

[6] = test system: IRF4; experiment: Western blot of IRF4 in PEL cell lines; assay type: cell-based; settings: BC-3, BCBL-1, JSC-1
Text: In addition, the effect of the immunomodulatory drugs on KSHV down-regulation of MHC-1 during lytic activation was investigated by FACS analysis after pretreating the cells with Immunomodulatory drugs prior to lytic activation with butyrate.
as §5
Western Blotting: At the end of an incubation period, cells were lysed and nuclear/cytoplasmic extracts were prepared using the NE-PER nuclear extraction kit (Pierce). Samples were subjected to SDS-PAGE (4 to 12% NuPAGE Tris-Bis) (Invitrogen) and transferred to nitrocellulose. The membrane was blocked with 5% w/v nonfat dry milk in 1×TBST (10 mM Tris-Hcl, […], 150 mM NaCl, and 0.05% Tween 20) overnight at 4° C. […]

With `Nc1cccc2c1C(=O)N(C1CCC(=O)NC1=O)C2=O` (centres unmarked) [pomalidomide, 4-amino-2-(2,6-dioxopiperidin-3-yl)isoindoline-1,3-dione] the “down-regulation of MHC-1 by plasmids encoding K3 or K5” value ([1]; 10 μM for 48 hours before electroporation) was “prevented”, the “prevention of MHC I knockdown, FACS analysis with K5” value ([1]; 10 μM for 48 hours, GFP-positive cells) was “not consistently observed” and the “MHC I knockdown, western blots” value ([1]; 10 μM for 48 hours, K3 or K5 plasmids) was “preventing MHC I knockdown”. For the same molecule, the “CD19 B-cells” value ([2]; during therapy) was “decline; also recorded: reversible decrease”, the NK cells ([2]; during therapy) was “no significant change” and the “Ki67 or PD-1 expression in CD4 or CD8 cells” value ([2]; in vivo) was “no significant changes”. For the same molecule, the “difference between HIV infected and uninfected patient groups in observed effects (cell number and phenotype)” value ([2]; in vivo) was “no significant difference”, the “CD3 (cells/μL) Change to End Therapy (Med, range)” value ([2]; median change from baseline) was “+11 cells/μL” and the “CD3 (cells/μL) Change to Week 8 (Med, range)” value ([2]; median change from baseline) was “+190 cells/μL”. The “CD4 (cells/μL) Change to End Therapy (Med, range)” value ([2]; median change from baseline) was −46 cells/μL, the “CD4 (cells/μL) Change to Week 8 (Med, range)” value ([2]; median change from baseline) was “+40 cells/μL” and the “CD8 (cells/μL) Change to End Therapy (Med, range)” value ([2]; median change from baseline) was 104 cells/μL. For the same molecule, the “CD8 (cells/μL) Change to Week 8 (Med, range)” value ([2]; median change from baseline) was “+142 cells/μL”, the “CD19 (cells/μL) Change to End Therapy (Med, range)” value ([2]; median change from baseline) was −87 cells/μL and the “CD19 (cells/μL) Change to Week 8 (Med, range)” value ([2]; median change from baseline) was −70 cells/μL. For the same molecule, the “NK (cells/μL) Change to End Therapy (Med, range)” value ([2]; median change from baseline) was 10 cells/μL, the “NK (cells/μL) Change to Week 8 (Med, range)” value ([2]; median change from baseline) was −6 cells/μL and the “CD19 (cells/μL) Change to Week 4 (Med, range)” value ([2]; median change from baseline 141) was −35 cells/μL. The “NK (cells/μL) Change to Week 4 (Med, range)” value ([2]; median change from baseline 178) was “+23 cells/μL”, the “CD4 (cells/μL) Change to Week 4 (Med, range)” value ([2]; median change from baseline 440) was “+108 cells/μL” and the “CD8 (cells/μL) Change to Week 4 (Med, range)” value ([2]; median change from baseline 500) was “+101 cells/μL”. For the same molecule, the “CD3 (cells/μL) Change to Week 4 (Med, range)” value ([2]; median change from baseline 1184) was “+275 cells/μL”, the “CD4 Subsets 38+ DR+: Absolute Change in % at Week 8 (med, range)” value ([2]; median, baseline 2.5 %) was “+2%” and the “CD4 Subsets RO− 27− (E): Absolute Change in % at Week 8 (med, range)” value ([2]; median, baseline 3.3 %) was −1.5%. For the same molecule, the “CD4 Subsets 57+: Absolute Change in % at Week 8 (med, range)” value ([2]; median, baseline 6.3 %) was −1.34%, the “CD8 Subsets 38+ DR+: Absolute Change in % at Week 8 (med, range)” value ([2]; median, baseline 8.0 %) was “+8.5%” and the “CD4 Subsets HLA DR+: Absolute Change in % at Week 8 (med, range)” value ([2]; median, baseline 8.9 %) was “+8.3%”. The “CD4 Subsets RO+ 27− (EM): Absolute Change in % at Week 8 (med, range)” value ([2]; median, baseline 16.7 %) was “+1.7%”, the “CD8 Subsets RO+ 27+ (CM): Absolute Change in % at Week 8 (med, range)” value ([2]; median, baseline 17.1 %) was “+8.1%” and the “CD8 Subsets RO+ 27− (EM): Absolute Change in % at Week 8 (med, range)” value ([2]; median, baseline 18.4 %) was “+1.0%”. For the same molecule, the “CD8 Subsets HLA DR+: Absolute Change in % at Week 8 (med, range)” value ([2]; median, baseline 19.6 %) was “+11.6%”, the “CD8 Subsets RO− 27+ (N): Absolute Change in % at Week 8 (med, range)” value ([2]; median, baseline 21.0 %) was −5.1% and the “CD8 Subsets 57+: Absolute Change in % at Week 8 (med, range)” value ([2]; median, baseline 30.8 %) was −11.0%. The “CD8 Subsets RO− 27− (E): Absolute Change in % at Week 8 (med, range)” value ([2]; median, baseline 31.8 %) was −6.1%, the “CD4 Subsets RO− 27+ (N): Absolute Change in % at Week 8 (med, range)” value ([2]; median, baseline 32.6 %) was −6.6% and the “CD8 Subsets 38+: Absolute Change in % at Week 8 (med, range)” value ([2]; median, baseline 33.4 %) was “+19.9%”. For the same molecule, the “CD4 Subsets 38+: Absolute Change in % at Week 8 (med, range)” value ([2]; median, baseline 34.5 %) was “+4.3%”, the “CD4 Subsets RO+ 27+ (CM): Absolute Change in % at Week 8 (med, range)” value ([2]; median, baseline 41.9 %) was “+6.4%” and the “CD4 and CD8 counts” value [2] was “Significant increases”. The “CD4 and CD8 counts” value ([2]; listed as Pomalidomide) was “significant increases”, the “activation (CD38+, HLADR+ and DR+/38+) of CD4 and CD8 T-cells” value ([2]; week 8) was “significant increases” and the “senescence (CD57+) of CD4 and CD8 T-cells” value ([2]; week 8) was “decreases”. The “protein expression level of KSHV K3 or K5” value ([3]; FIG. 8) was “appears not to prevent K3 and K5 expression”, the “protein expression level of KSHV K3 or K5” value ([3]; FIG. 8, listed as Pomalidomide) was “did not significantly change the protein expression level” and the “KSHV VL (copies/PBMC) Change to End Therapy (Med, range)” value ([4]; median change from baseline) was 0 copies/PBMC. For the same molecule, the “KSHV VL (copies/PBMC) Change to Week 8 (Med, range)” value ([4]; median change from baseline) was 0 copies/PBMC, the “KSHV VL (copies/PBMC) Change to Week 4 (Med, range)” value ([4]; median change from baseline 0) was 0^† copies/PBMC and the “subjects whose KSHV VL became detectable from undetectable” value ([4]; week 4, 8 subjects) was 35%. The “subjects showing an increase in KSHV VL in PBMCs” value ([4]; week 4, 10 subjects) was 45%, the “KSHV VL” value ([4]; week 4, not sustained at week 8) was “transient increase; also recorded: significant increase” and the p21 levels [5] was “most effective in up-regulating p21”. The IRF4 expression level ([6]; 1 μM and 10 μM, FIGS. 4A-4D) was “downregulated IRF4 in all three PEL lines” and the IRF4 expression level ([6]; indicated concentrations for 72 hours, among three tested compounds, FIGS. 3A-3C) was “most effective in downregulating IRF4”.
